The source of these data is US8710064B2, “2-aryl-4-quinazolinones and their pharmaceutical compositions” (China Medical University, priority 2011, dated 2014).

One data set has as its system HSC-3. In words: trypan blue exclusion assay, HSC-3 cells. In kind it is cell-based, human. Particulars: for IC50: HSC-3 human squamous carcinoma, trypan blue exclusion assay. On the procedure:
The HSC-3 (human oral squamous cell carcinoma) were cultured in 1:1 Dulbecco's Modified Eagle's Medium (DMEM) and Ham's Nutrient Mixture F-12, containing 10% FBS (HyClone, Logan, Utah, USA), 100 U/ml penicillin, 100 μg/ml streptomycin (Gibco BRL, Rockville, Md., USA) and 2 mM glutamine (Merck, Darmstadt, Germany).
(§1) Cell viability was also determined by trypan-blue exclusion assay. Cells were seeded in 6-well plates (2×10^4/well) for trypan blue exclusion assay, and incubated for 24 hours at 37° C. Culture medium containing test compound or DMSO (0.006%) was added to each well, and cells were incubated at 37° C. At indicated time points (0, 24, 48, 72 and 96 hr), cells were suspended with 0.05% trypsin-EDTA, and stained with trypan-blue dye (0.4%) (Sigma). The cell viability was evaluated by the percentage of death relative to the total cell, and cell growth curve was determined by number of live cells relative to the total number of cells.
(§2) The anti-proliferation effects of Compounds 17-31 on M21, CH27, H460, Hep3B and HSC-3 cells were evaluated by the trypan blue exclusion assay.

Another data set deals with M21. In words: trypan blue exclusion assay, M21 cells. The note with it: Homo sapiens; M21 skin cancer; trypan blue exclusion assay; read-out: IC50 M21. The data set is classed as cell-based. On the procedure:
M21 cell line (human malignant melanoma) was provided by Dr. Feng-Yao Tang (China Medical University, Taiwan). Cells were grown in monolayer culture in RPMI-1640 medium, Eagle's minimum essential medium or Dulbecco's modified Eagles medium (Invitrogen Corporation, Grand Island, N.Y., USA) containing 10% fetal bovine serum (FBS; HyClone, Logan, Utah, USA), 100 U/ml penicillin and 100 μg/ml streptomycin (Gibco BRL, Rockville, Md., USA).
as §1, §2

In data set [1] the test system is M21, CH27, H460, Hep3B and HSC-3 cells. In words: trypan blue exclusion assay, cancer cell panel (summary). In kind it is cell-based. Particulars: summary of Table 2. The procedure:
as §1, §2

Another data set has as its system Hep3B. In words: trypan blue exclusion assay, Hep3B cells. The data set is classed as cell-based. Particulars: Hep3B human hepatoma. On the procedure:
(§3) Hep3B (human hepatocellular carcinoma) and H460 (lung non-small carcinoma) cells were grown in monolayer culture in Dulbecco's modified Eagle's medium (DMEM) (Life Technologies, Rockville, Md., USA) containing 5% fetal bovine serum (HyClone, Logan, Utah, USA), 100 U/ml penicillin and 100 μg/ml streptomycin (Gibco BRL, Rockville, Md., USA) and 2 mM glutamine (Merck, Darmstadt, Germany).
as §1, §2

The subject of another data set is CH27. Description: trypan blue exclusion assay, CH27 cells. The note with it: CH27 human lung squamous carcinoma. In kind it is cell-based. On the procedure: CH27 cells (Human lung squamous carcinoma) were grown in monolayer culture in Dulbecco's modified Eagle's medium (DMEM; Life Technologies, Rockville, Md., USA) containing 5% FBS (HyClone, Logan, Utah, USA), 100 U/ml penicillin, […] streptomycin (Gibco BRL, Rockville, Md., USA) and 2 mM glutamine (Merck, Darmstadt, Germany).
as §1, §2

A further data set concerns H460. Description: trypan blue exclusion assay, H460 cells. The data set is classed as cell-based. Particulars: NCI-H460, H460 human non-small cell lung cancer. The procedure: as §3, §1, §2
The next data set has as its system C6 rat glioma. In words: MTS cell viability assay, C6 glioma cells. The data set is classed as cell-based. The note with it: 48 hours, mean±SEM, n=3. The procedure: (§4) The human glioma cell lines U87, U251, T98G, U373, and rat glioma cell line RT2 provided by Dr. Michael Hsiao (Genomics Research Center, Academia Sinica, Taiwan) were cultured in Dulbecco's Modified Eagle medium (DMEM) (Caisson) supplemented with 10% fetal bovine serum (FBS) (Sigma-Aldrich), 2 mM L-glutamine (Caisson), 100 U/ml penicillin, and 100 μg/ml streptomycin (Caisson). The rat glioma C6 cell line provided by Dr. Shun-Fen Tzeng (National Cheng Kung University, Taiwan) was cultured in DMEM/F12 (Caisson) supplemented with 10% fetal bovine serum, 2 mM L-glutamine, 100 U/ml penicillin, and 100 μg/ml streptomycin. The human normal glia cell line SVGP12, kindly provided by Dr. Michael Hsiao, was cultured in Minimum Essential Medium (MEM) (Invitrogen) supplemented with 10% fetal bovine serum, 2 mM L-glutamine, 100 U/ml penicillin, and […]. Primary glia cells were prepared by surgery. Cerebral cortices without meninges were dissected from postnatal (P0-P2) Sprague-Dawley (SD, NCKU Laboratory Animal Center) rats and dissociated in 0.05% trypsin-EDTA (Biowest) at 37° C. for 10 min. Culture medium was added and pipetted for several times, and supernatant was removed after a centrifugation at 1,000 rpm for 5 minutes. […]
(§5) Cell proliferation was determined by MTS (tetrazolium compound, 3-(4,5-dimethylthiazol-2-yl)-5-(3-carboxymethoxyphenyl)-2-(4-sulfophenyl)-2H-tetrazolium) assay (Promega). […] The absorbance of soluble formazan was measured at 490 nm with microplate reader (Molecular device). The cell viability was determined by the percentage of the absorption relative to untreated control. […]
(§6) To investigate the effect of 2-aryl-4-quinazolinone in accordance with the present invention on cell proliferation, glioma cell lines were treated with MJ-66, MJ-68, or MJ-78. […] The cell viability of each group was analyzed by MTS assay (mean±SEM, n=3).
In general terms: Tetrazolium assays rely on reduction of a dye to a coloured formazan, in cell work by metabolically active cells.

The subject of data set [2] is U87 human glioma cell lines. In words: MTS cell viability assay, U87 glioma cells. In kind it is cell-based. The note with it: 48 hours, mean±SEM, n=3. The procedure:
as §4, §5, §6

Take `COc1ccc2nc(-c3cccc4ccccc34)[nH]c(=O)c2c1` [Compound 17, 6-Methoxy-2-(naphthalen-1-yl) quinazolin-4-one]: the IC50 with HSC-3 is greater than 10 µM; in the data set on M21, 6.09 µM; in the data set on Hep3B, 1.87 µM; in the data set on CH27, 0.089 µM; in the data set with H460, 0.079 µM. Moreover, the “activity on HSC-3 cells” value in the data set on HSC-3 (summary of Table 2) was “inactive”. Moreover, the “cytotoxic effects toward cancer cells” value in data set [1] was “exhibited cytotoxic effects”.
`COc1ccc2nc(-c3c[nH]c4ccccc34)[nH]c(=O)c2c1` [Compound 18, 6-Methoxy-2-(1H-indol-3-yl) quinazolin-4-one] showed a melting point of 311 to 312 °C. The IC50 with HSC-3 is greater than 10 µM. Further, in the data set with M21, the IC50 was greater than 10 µM. The molecule also came in with an IC50 with Hep3B greater than 10 µM. For the same molecule, the IC50 with CH27 was greater than 10 µM. The molecule further registered an IC50 with H460 greater than 10 µM.
Regarding `COc1ccc2nc(-c3csc4ccccc34)[nH]c(=O)c2c1` [Compound 19, 6-Methoxy-2-(benzo[b]thiophen-3-yl) quinazolin-4-one], the melting point lay within 289 to 290 °C. The molecule also yielded an IC50 with HSC-3 greater than 10 µM. For the same molecule, in the data set on M21, the IC50 is greater than 10 µM. Also, in the data set on Hep3B, the IC50 was greater than 10 µM. Further, in the data set with CH27, the IC50 was greater than 10 µM. Besides, the IC50 in the data set on H460 is greater than 10 µM.
On to `CN(C)c1ccc2nc(-c3cccc4ccccc34)[nH]c(=O)c2c1` [Compound 20, 6-(N,N-Dimethylamino)-2-(naphthalen-1-yl) quinazolin-4-one], for which the IC50 was determined as 0.202 µM in the data set on HSC-3; 3.77 µM with M21; 8.63 µM with Hep3B; 0.447 µM in the data set with CH27; 0.506 µM in the data set on H460. In data set [1], the “cytotoxic effects toward cancer cells” value is “exhibited cytotoxic effects”.
As for `CN(C)c1ccc2nc(-c3c[nH]c4ccccc34)[nH]c(=O)c2c1` [Compound 21, 6-(N,N-Dimethylamino)-2-(1H-indol-3-yl)quinazolin-4-one], the melting point was greater than 300 °C. The IC50 in the data set with HSC-3 is greater than 10 µM. Besides, in the data set on M21, the IC50 was greater than 10 µM. The molecule further returned a concentration for half-maximal inhibition (IC50) in the data set with Hep3B greater than 10 µM. For the same molecule, in the data set on CH27, the IC50 was greater than 10 µM. Besides, the IC50 with H460 was greater than 10 µM.
Molecule `CN(C)c1ccc2nc(-c3csc4ccccc34)[nH]c(=O)c2c1` [Compound 22] had a melting point greater than 300 °C. The molecule further registered an IC50 with HSC-3 greater than 10 µM. The IC50 with M21 is greater than 10 µM. In the data set on Hep3B, this molecule came in with an IC50 greater than 10 µM. In the data set with CH27, this molecule had an IC50 greater than 10 µM. This molecule also showed an IC50 in the data set with H460 greater than 10 µM.
In the case of `O=c1[nH]c(-c2c[nH]c3ccccc23)nc2ccc(N3CCCC3)cc12` [Compound 24, 6-(Pyrrolidin-1-yl)-2-(1H-indol-3-yl)quinazolin-4-one], the IC50 stood at 1.89 µM in the data set with HSC-3; 7.63 µM with M21; 7.39 µM in the data set with Hep3B; 8.7 µM in the data set with CH27; 8.81 µM with H460. Besides, the “cytotoxic effects toward cancer cells” value in [1] is given as “exhibited cytotoxic effects”.
With `O=c1[nH]c(-c2csc3ccccc23)nc2ccc(N3CCCC3)cc12` [Compound 25, 6-(Pyrrolidin-1-yl)-2-(benzo[b]thiophen-3-yl)quinazolin-4-one], the melting point is greater than 300 °C. In the data set with HSC-3, this molecule gave an IC50 greater than 10 µM. The IC50 with M21 was greater than 10 µM. Further, the IC50 with C6 rat glioma was greater than 1000 nM. Moreover, the IC50 in data set [2] is greater than 1000 nM. The molecule also gave an IC50 with Hep3B greater than 10 µM. In the data set on CH27, the IC50 was greater than 10 µM. The molecule also yielded an IC50 in the data set on H460 greater than 10 µM.
Consider `O=c1[nH]c(-c2c[nH]c3ccccc23)nc2ccc(N3CCCCC3)cc12` [Compound 27, 6-(Piperidin-1-yl)-2-(1H-indol-3-yl)quinazolin-4-one], for which the IC50 was greater than 10 µM in the data set on HSC-3; 8.99 µM in the data set on M21; 5.65 µM in the data set on Hep3B; greater than 10 µM in the data set on CH27; 6.86 µM in the data set on H460. In addition, the “cytotoxic effects toward cancer cells” value in [1] is “exhibited cytotoxic effects”.
Consider `O=c1[nH]c(-c2csc3ccccc23)nc2ccc(N3CCCCC3)cc12` [Compound 28], for which the melting point was greater than 300 °C. In addition, in the data set on HSC-3, the IC50 is greater than 10 µM. The IC50 with M21 was greater than 10 µM. This molecule showed an IC50 in the data set on Hep3B greater than 10 µM. Moreover, the IC50 with CH27 is greater than 10 µM. Moreover, in the data set on H460, the IC50 was greater than 10 µM.
As for `O=c1[nH]c(-c2cccc3ccccc23)nc2ccc(N3CCOCC3)cc12` [Compound 29, 6-(Morpholino)-2-(naphthalen-1-yl)quinazolin-4-one], the concentration for half-maximal inhibition (IC50) in the data set on HSC-3 is 0.614 µM; in the data set on M21 it was 2.33 µM; in the data set with Hep3B it was 1.06 µM; in the data set on CH27 it was 0.597 µM; with H460, 0.432 µM. In [1], the “cytotoxic effects toward cancer cells” value is given as “exhibited cytotoxic effects”.
With `O=c1[nH]c(-c2c[nH]c3ccccc23)nc2ccc(N3CCOCC3)cc12` [Compound 30, 6-(Morpholino)-2-(1H-indol-3-yl)quinazolin-4-one], the melting point is greater than 300 °C. In the data set on HSC-3, the IC50 was greater than 10 µM. Besides, the half-inhibitory concentration (IC50) in the data set with M21 is greater than 10 µM. The molecule further yielded an IC50 in the data set on Hep3B greater than 10 µM. Besides, in the data set on CH27, the IC50 was greater than 10 µM. This molecule also showed an IC50 in the data set on H460 greater than 10 µM.
`O=c1[nH]c(-c2csc3ccccc23)nc2ccc(N3CCOCC3)cc12` [Compound 31, 6-(Morpholino)-2-(benzo[b]thiophen-3-yl) quinazolin-4-one] registered a melting point greater than 300 °C. The half-maximal inhibitory concentration (IC50) with HSC-3 was greater than 10 µM. Also, the IC50 with M21 was greater than 10 µM. The IC50 in the data set on Hep3B was greater than 10 µM. The molecule further returned an IC50 in the data set with CH27 greater than 10 µM. In the data set with H460, this molecule gave an IC50 greater than 10 µM.

In general, IC50 refers to the midpoint of a concentration-inhibition curve. The term melting point denotes the temperature, or range, at which the solid turns liquid.
